In PubChem BioAssay (NCI):
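Cultured in 96-well plates, cells were exposed to test compound for 48 hours across five concentrations. TGI is the concentration that stops growth completely.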

Tests used:
Experiment in all cases: growth of human tumour cells (NCI), 48 h
EKVX NSCLC = system: EKVX NSCLC
NCI/ADR-RES ovarian = system: NCI/ADR-RES ovarian
HOP-92 NSCLC = system: HOP-92 NSCLC
IGROV1 ovarian = system: IGROV1 ovarian
U251 CNS = system: U251 CNS
UACC-257 melanoma = system: UACC-257 melanoma
MDA-MB-435 = system: MDA-MB-435
SK-MEL-5 melanoma = system: SK-MEL-5 melanoma
OVCAR-5 ovarian = system: OVCAR-5 ovarian
A498 renal = system: A498 renal
UO-31 renal = system: UO-31 renal
SW-620 colon = system: SW-620 colon
MDA-N = system: MDA-N
HOP-62 NSCLC = system: HOP-62 NSCLC
NCI-H460 lung = system: NCI-H460 lung
COLO 205 colon = system: COLO 205 colon
MOLT-4 leukemia = system: MOLT-4 leukemia
DU-145 prostate = system: DU-145 prostate
T-47D breast = system: T-47D breast
CCRF-CEM leukemia = system: CCRF-CEM leukemia
CAKI-1 renal = system: CAKI-1 renal
SF-295 CNS = system: SF-295 CNS
MALME-3M melanoma = system: MALME-3M melanoma
KM12 colon = system: KM12 colon
K-562 leukemia = system: K-562 leukemia
ACHN renal = system: ACHN renal
OVCAR-3 ovarian = system: OVCAR-3 ovarian
786-0 renal = system: 786-0 renal
UACC-62 melanoma = system: UACC-62 melanoma
NCI-H522 lung = system: NCI-H522 lung
MCF7 breast = system: MCF7 breast
SF-539 CNS = system: SF-539 CNS
OVCAR-4 ovarian = system: OVCAR-4 ovarian
SK-OV-3 ovarian = system: SK-OV-3 ovarian
SF-268 CNS = system: SF-268 CNS
NCI-H226 lung = system: NCI-H226 lung
SNB-19 CNS = system: SNB-19 CNS
HT29 colon = system: HT29 colon
OVCAR-8 ovarian = system: OVCAR-8 ovarian
HCT-15 colon = system: HCT-15 colon
A549 NSCLC = system: A549 NSCLC
RXF 393 renal = system: RXF 393 renal
SN12C renal = system: SN12C renal
HCT-116 colon = system: HCT-116 colon
BT-549 breast = system: BT-549 breast
MDA-MB-231 breast = system: MDA-MB-231 breast
PC-3 prostate = system: PC-3 prostate
SK-MEL-28 melanoma = system: SK-MEL-28 melanoma
TK-10 renal = system: TK-10 renal
HCC-2998 colon = system: HCC-2998 colon
SK-MEL-2 melanoma = system: SK-MEL-2 melanoma
SR leukemia = system: SR leukemia
NCI-H23 lung = system: NCI-H23 lung
M14 melanoma = system: M14 melanoma
RPMI-8226 leukemia = system: RPMI-8226 leukemia
LOX IMVI melanoma = system: LOX IMVI melanoma
HL-60(TB) leukemia = system: HL-60(TB) leukemia
HS 578T breast = system: HS 578T breast

CC(C)CCC[C@@H](C)[C@H]1CC[C@H]2C3=C[C@H](OS(=O)(=O)O)[C@@]4(O)C[C@@H](O)CC[C@]4(C)[C@@]3(O)CC[C@]12C
TGI (EKVX NSCLC): > 100 µM
TGI (NCI/ADR-RES ovarian): > 100 µM
TGI (HOP-92 NSCLC): > 100 µM
TGI (IGROV1 ovarian): > 100 µM
TGI (U251 CNS): > 100 µM
TGI (UACC-257 melanoma): > 100 µM
TGI (MDA-MB-435): > 100 µM
TGI (SK-MEL-5 melanoma): > 100 µM
TGI (OVCAR-5 ovarian): > 100 µM
TGI (A498 renal): > 100 µM
TGI (UO-31 renal): > 100 µM
TGI (SW-620 colon): > 100 µM
TGI (MDA-N): > 100 µM
TGI (HOP-62 NSCLC): > 100 µM
TGI (NCI-H460 lung): > 100 µM
TGI (COLO 205 colon): > 100 µM
TGI (MOLT-4 leukemia): > 100 µM
TGI (DU-145 prostate): > 100 µM
TGI (T-47D breast): > 100 µM
TGI (CCRF-CEM leukemia): > 100 µM
TGI (CAKI-1 renal): > 100 µM
TGI (SF-295 CNS): > 100 µM
TGI (MALME-3M melanoma): > 100 µM
TGI (KM12 colon): > 100 µM
TGI (K-562 leukemia): > 100 µM
TGI (ACHN renal): > 100 µM
TGI (OVCAR-3 ovarian): > 100 µM
TGI (786-0 renal): > 100 µM
TGI (UACC-62 melanoma): > 100 µM
TGI (NCI-H522 lung): > 100 µM
TGI (MCF7 breast): > 100 µM
TGI (SF-539 CNS): > 100 µM
TGI (OVCAR-4 ovarian): > 100 µM
TGI (SK-OV-3 ovarian): > 100 µM
TGI (SF-268 CNS): > 100 µM
TGI (NCI-H226 lung): > 100 µM
TGI (SNB-19 CNS): > 100 µM
TGI (HT29 colon): > 100 µM
TGI (OVCAR-8 ovarian): > 100 µM
TGI (HCT-15 colon): > 100 µM
TGI (A549 NSCLC): > 100 µM
TGI (RXF 393 renal): > 100 µM
TGI (SN12C renal): > 100 µM
TGI (HCT-116 colon): > 100 µM
TGI (BT-549 breast): > 100 µM
TGI (MDA-MB-231 breast): > 100 µM
TGI (PC-3 prostate): > 100 µM
TGI (SK-MEL-28 melanoma): > 100 µM
TGI (TK-10 renal): > 100 µM
TGI (HCC-2998 colon): > 100 µM
TGI (SK-MEL-2 melanoma): > 100 µM
TGI (SR leukemia): > 100 µM
TGI (NCI-H23 lung): > 100 µM
TGI (M14 melanoma): > 100 µM
TGI (RPMI-8226 leukemia): > 100 µM
TGI (LOX IMVI melanoma): > 100 µM

Cc1ccc(/N=N/C(=NNC(=O)c2ccc(C)cc2)c2ccc(N(C)C)cc2)cc1
TGI (EKVX NSCLC): > 100 µM
TGI (NCI/ADR-RES ovarian): > 100 µM
TGI (HOP-92 NSCLC): 80.2 µM
TGI (IGROV1 ovarian): > 100 µM
TGI (U251 CNS): > 100 µM
TGI (UACC-257 melanoma): 60 µM
TGI (MDA-MB-435): 39.5 µM
TGI (SK-MEL-5 melanoma): 30.7 µM
TGI (OVCAR-5 ovarian): > 100 µM
TGI (UO-31 renal): 68 µM
TGI (SW-620 colon): > 100 µM
TGI (MDA-N): 46.1 µM
TGI (NCI-H460 lung): 80.3 µM
TGI (COLO 205 colon): 31.1 µM
TGI (MOLT-4 leukemia): > 100 µM
TGI (DU-145 prostate): 73.9 µM
TGI (T-47D breast): > 100 µM
TGI (CAKI-1 renal): 48.8 µM
TGI (SF-295 CNS): 76.1 µM
TGI (KM12 colon): 37 µM
TGI (K-562 leukemia): > 100 µM
TGI (ACHN renal): 92.4 µM
TGI (OVCAR-3 ovarian): 54.2 µM
TGI (786-0 renal): > 100 µM
TGI (UACC-62 melanoma): 23.4 µM
TGI (NCI-H522 lung): 49.9 µM
TGI (MCF7 breast): 46.2 µM
TGI (SF-539 CNS): > 100 µM
TGI (OVCAR-4 ovarian): 54 µM
TGI (SK-OV-3 ovarian): 76.2 µM
TGI (SF-268 CNS): > 100 µM
TGI (NCI-H226 lung): 68.4 µM
TGI (SNB-19 CNS): 58.7 µM
TGI (HT29 colon): 91.3 µM
TGI (OVCAR-8 ovarian): > 100 µM
TGI (HCT-15 colon): 91.2 µM
TGI (A549 NSCLC): 87.9 µM
TGI (HL-60(TB) leukemia): 72.1 µM
TGI (SN12C renal): 68.5 µM
TGI (HCT-116 colon): 68.2 µM
TGI (BT-549 breast): 62.4 µM
TGI (HS 578T breast): > 100 µM
TGI (MDA-MB-231 breast): > 100 µM
TGI (PC-3 prostate): > 100 µM
TGI (SK-MEL-28 melanoma): > 100 µM
TGI (TK-10 renal): > 100 µM
TGI (HCC-2998 colon): 73.2 µM
TGI (SK-MEL-2 melanoma): > 100 µM
TGI (SR leukemia): 45.1 µM
TGI (NCI-H23 lung): 69.3 µM
TGI (M14 melanoma): 60.4 µM
TGI (RPMI-8226 leukemia): 70.5 µM
TGI (LOX IMVI melanoma): > 100 µM
